Consider 4 molecules from ChEMBL document CHEMBL4732248, “Synthesis and antibacterial activities of marine natural product ianthelliformisamines and subereamine synthetic analogues” (Bioorg Med Chem Lett, 2021).

≈ marks a conversion by molar mass, not a printed value. Calls of active or inactive are those of the source.

Broadly, the IC50 is the concentration that inhibits the measured activity by half. For orientation: MIC means the smallest concentration in the dilution series that meets the test's criterion for growth inhibition. As a reminder, the MBC is the smallest concentration meeting the test's criterion for killing.

The subject of data set [1] is Escherichia coli. The data set is described as follows: Antibacterial activity against Escherichia coli assessed as bacterial growth inhibition measured after 24 hrs by broth dilution assay. The following applies: for IC50: 24 h; for MIC: time 24 hrs. It is filed as functional, organism-based. (Dilution methods test growth across graded concentrations, often in twofold steps.)

For data set [2], the system named is Staphylococcus aureus. The data set is described as follows: Antibacterial activity against Staphylococcus aureus assessed as bacterial growth inhibition measured after 24 hrs by broth dilution assay. It is filed as functional, organism-based. The following applies: for IC50: 24 h; for MIC: time 24 hrs.
The test system of data set [3] is Cell membrane. The data set is described as follows: Induction of cell membrane permeabilization in Staphylococcus aureus assessed as increase in propidium iodide intake at MIC by propidium iodide staining based assay. The following applies: time 48.0 hrs, TDE = time-dependent effect.
The subject of data set [4] is Staphylococcus aureus. In words: Antibacterial activity against Staphylococcus aureus assessed as zone of inhibition at 25 to 100 ug by disc diffusion method. As to conditions: dose 25-100 µg. It counts as functional, organism-based.
The test system of data set [5] is Escherichia coli. In words: Antibacterial activity against Escherichia coli assessed as minimum concentration required to decrease 90% bacteria measured after 24 hrs by broth dilution assay. It is filed as functional.
The test system of data set [6] is Cell membrane. In words: Induction of cell membrane permeabilization in Escherichia coli assessed as increase in propidium iodide intake at MIC by propidium iodide staining based assay. As to conditions: TDE = time-dependent effect.
For data set [7], the system named is Escherichia coli. The data set is described as follows: Antibacterial activity against Escherichia coli assessed as zone of inhibition at 25 to 100 ug by disc diffusion method. It is filed as functional, organism-based. As to conditions: dose 25-100 µg.
A short description of data set [8]: Cytotoxicity against human HEK293 cells assessed as viable cells at 50 uM after 48 hrs by calcein-AM staining based fluorescence analysis. It counts as cell-based. The following applies: read-out: Activity.
For data set [9], the system named is Staphylococcus aureus. In words: Antibacterial activity against Staphylococcus aureus assessed as minimum concentration required to decrease 90% bacteria measured after 24 hrs by broth dilution assay. It is filed as functional.

On to `CC1(C)S[C@@H]2[C@H](NC(=O)[C@H](N)c3ccccc3)C(=O)N2[C@H]1C(=O)O` [AMPICILLIN], for which the IC50 was found to be 33.6 µM in data set [1] and 3.8 µM in [2].
`COc1c(Br)cc(Br)c(/C=C/C(=O)NCCCNCc2cccc(CNCCCNC(=O)/C=C/c3c(Br)cc(Br)c(OC)c3Br)c2)c1Br`: the minimum inhibitory concentration (MIC) in [1] and in [2] was above 200 µM throughout.
Turning to `COc1c(Br)cc(/C=C/C(=O)NCCCNCc2cccc(CNCCCNC(=O)/C=C/c3cc(Br)c(OC)c(Br)c3)c2)cc1Br`, the MIC in data set [1] and in [2] was above 200 µM in each case.
In the case of `COc1cc(/C=C\C(=O)NCCCNCc2cccc(CNCCCNC(=O)/C=C\c3cc(OC)c(Br)cc3Br)c2)c(Br)cc1Br`, the results for the 50% inhibitory concentration (IC50) in [1] and in data set [2] were 37.3 µM and 13.9 µM, respectively. The MIC in [1] was determined as 25 µM (≈ 22.2 µg/mL); in [2] it was 50 µM (≈ 44.3 µg/mL). The Activity entry in [3] and in data set [6] was “Tde” each time. Further, the inhibition result in data set [4] and in [7] was “Active” throughout. In addition, the MBC was 25 µM (≈ 22.2 µg/mL) in data set [5] and 50 µM (≈ 44.3 µg/mL) in data set [9]. The viability at 48 h, 50 µM in data set [8] was above 95%.
